For 22 compounds, IC50 results are on record in BindingDB's records for doi:10.1016/j.bmc.2017.06.018 (Chungnam National University, 2017).

A value given as a limit tells only on which side of the number the result lay.

The nature of the test: Inhibition of IL-5 in mouse Y16 cells assessed as reduction in cell proliferation after 48 hrs by WST-1 assay.
For the compound `CCC(=O)N(CCO)Cc1coc2cccc(OCC3CCCCC3)c2c1=O`, the IC50 was 25.2 µM. As for `O=C(Nc1ccc(Cl)cc1)N(CCO)Cc1coc2cccc(OCC3CCCCC3)c2c1=O`, the IC50 was above 30 µM.

Take `COc1ccc(NC(=O)N(CCO)Cc2coc3cccc(OCC4CCCCC4)c3c2=O)cc1`: the IC50 came to 18 µM.

As to `O=C(NCc1ccccc1)N(CCO)Cc1coc2cccc(OCC3CCCCC3)c2c1=O`, the IC50 came out at 18 µM. For `CCCNC(=O)N(CCO)Cc1coc2cccc(OCC3CCCCC3)c2c1=O` the value was above 30 µM.

On to `CC(C)(C)CCOc1cccc2occ(CN(CCO)C(=O)Oc3ccccc3)c(=O)c12`, for which the IC50 was above 30 µM. For `O=c1c(-c2ccc(O[C@H]3O[C@@H](CO)[C@H](O)[C@@H](O)[C@@H]3O)cc2)coc2cc(O)cc(O)c12`, the IC50 is 10.6 µM. For the compound `CC(C)(C)CCOc1cccc2occ(CN(CCO)C(=O)Nc3ccccc3)c(=O)c12`, the IC50 is above 30 µM. Regarding `CCNC(=O)N(CCO)Cc1coc2cccc(OCC3CCCCC3)c2c1=O`, the IC50 was above 30 µM. For the compound `CCOC(=O)N(CCO)Cc1coc2cccc(OCC3CCCCC3)c2c1=O`, the IC50 is 20.2 µM. For `O=C(Cc1ccccc1)N(CCO)Cc1coc2cccc(OCC3CCCCC3)c2c1=O`, the IC50 is 10 µM. On to `CC(C)CCOc1cccc2occ(CN(CCO)C(=O)Nc3ccccc3)c(=O)c12`, for which the IC50 is above 30 µM.

Regarding `COc1ccc(CC(=O)N(CCO)Cc2coc3cccc(OCC4CCCCC4)c3c2=O)cc1`, the IC50 worked out at 17.9 µM. As to `O=C(NC1CCCCC1)N(CCO)Cc1coc2cccc(OCC3CCCCC3)c2c1=O`, the IC50 turned out to be 17 µM. As for `O=C(Oc1ccccc1)N(CCO)Cc1coc2cccc(OCC3CCCCC3)c2c1=O`, the IC50 was determined as 25 µM. `O=C(NCCCc1ccccc1)N(CCO)Cc1coc2cccc(OCC3CCCCC3)c2c1=O`: the half-maximal inhibitory concentration (IC50) came out at 15 µM. Take `CC(C)CCOc1cccc2occ(CN(CCO)C(=O)Oc3ccccc3)c(=O)c12`: the concentration for half-maximal inhibition (IC50) was above 30 µM. For the compound `CC(C)NC(=O)N(CCO)Cc1coc2cccc(OCC3CCCCC3)c2c1=O`, the IC50 was above 30 µM. For `CCCC(=O)N(CCO)Cc1coc2cccc(OCC3CCCCC3)c2c1=O`, the IC50 stood at 25.3 µM.

In the case of `O=C(Nc1ccccc1)N(CCO)Cc1coc2cccc(OCC3CCCCC3)c2c1=O`, the IC50 was 17 µM.

For the compound `CC(C)CCOc1cccc2occ(CN(CCO)C(=O)Cc3ccccc3)c(=O)c12`, the IC50 is above 30 µM. Consider `CC(C)(C)CCOc1cccc2occ(CN(CCO)C(=O)Cc3ccccc3)c(=O)c12`, for which the concentration for half-maximal inhibition (IC50) is above 30 µM.
